As usually defined, the IC50 is the concentration needed to halve the response being measured.

Molecules are shown by their SMILES.

Here are results for 1 compound from ChEMBL document CHEMBL1139192, “Novel bis(indolyl)maleimide pyridinophanes that are potent, selective inhibitors of glycogen synthase kinase-3” (Bioorg Med Chem Lett, 2007).

The target in the assay is Glycogen synthase kinase-3 beta (Homo sapiens, UniProt P49841). The assay can be described thus: Inhibition of human recombinant GSK3-beta.
Sequence of Glycogen synthase kinase-3 beta (P49841 whole entry): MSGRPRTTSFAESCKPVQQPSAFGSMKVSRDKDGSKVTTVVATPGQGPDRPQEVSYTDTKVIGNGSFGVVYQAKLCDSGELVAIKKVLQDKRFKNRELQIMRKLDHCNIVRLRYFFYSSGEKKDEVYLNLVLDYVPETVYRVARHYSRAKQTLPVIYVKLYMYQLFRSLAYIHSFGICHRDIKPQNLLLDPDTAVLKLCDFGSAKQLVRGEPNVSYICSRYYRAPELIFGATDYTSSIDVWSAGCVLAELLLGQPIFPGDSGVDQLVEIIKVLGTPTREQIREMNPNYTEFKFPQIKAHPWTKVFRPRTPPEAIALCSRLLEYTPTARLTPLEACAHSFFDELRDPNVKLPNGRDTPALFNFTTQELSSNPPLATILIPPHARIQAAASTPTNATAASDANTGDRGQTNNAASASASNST

For the compound `CN(C)c1nc2ccc1CCCn1cc(c3ccccc31)C1=C(C(=O)NC1=O)c1cn(c3ccccc13)CCC2`, the IC50 was determined as 0.037 µM.
